Source: US20170273917A1, “NMDA RECEPTOR ANTAGONISTS FOR TREATING GAUCHER DISEASE” (Yeda Research and Development Co. Ltd., priority 2014, published 2017)

Legend:
Format in all cases: in vivo, mouse
[1] = test system: CD68-positive cells in cortical layer V; experiment: Immunohistochemistry of CD68-positive cells in cortical layer V of the brain
Protocol: Immunohistochemistry—Mice were sacrificed and whole brains were fixed in 4% paraformaldehyde:PBS overnight at 4° C. Tissues were washed in PBS and sectioned with a microtome. Forty micrometer coronal sections were processed free floating in 2% BSA, 0.2% Triton X-100, PBS through all blocking, antibody incubation, and wash steps. Sections were incubated overnight at 4° C. with primary anti rat CD68 (AbD Serotec, Oxford, UK; 1:1000). Following washes, sections were incubated with secondary Cy2-conjugated donkey anti-rat antibody (1:200, Jackson). The presence of CD68-positive cells in cortical layer V of the brain was analyzed using an epifluorescent microscope (Zeiss).
To verify the results of Example 1, the presence of CD68-positive cells in the cortical layer V of the brain was analyzed in two exemplary strains, AKR/J (average mortality on day 24) and BTBR T^+ITPR3TF/J (100% mortality on day 199).

[2] = test system: GlcCer, GlcSo, GalCer, GalSo levels in the brain; experiment: Sphingolipid analysis (LC-ESI-MS/MS) of brains of treated mice; details: P18
Protocol: Sphingolipid analysis—LC-ESI-MS/MS was performed using an ABI 4000 quadrupole-linear ion trap mass spectrometer as previously described (Farfel-Becker et al. Hum Mol Genet. 2014; 23(4):843-54). The sphingolipid internal standards were obtained from Avanti Polar Lipids (Alabaster, Ala., USA).
In the next step, the consequences of GBA1 inhibition, GlcCer accumulation, was analyzed. As expected, CBE-treated mice presented higher levels of GlcCer in the brain in comparison to the controls. The average elevation in GlcCer levels in CBE-treated brains was 3.7-fold compared to PBS-treated mice (FIG. 3C). C18, the most abundant GlcCer species in the brain, was the main GlcCer species elevated (not shown). Importantly, there was no correlation between the levels of GlcCer in the brain and life spans either in the PBS(R^2=0.1441, data not shown) or CBE conditions (R^2=0.0569, FIG. 3C). There was also no correlation between the change in GlcCer levels in each strain and the life spans (R^2=0.0311, data not shown). In addition, no correlation was found between each individual GlcCer subspecies (C14, C16, C18:1, C18, C20, C22, C24:1, C24, C26:1, and C26) and life spans under PBS and CBE conditions (data not shown).
Glucosylsphingosine (GlcSo) is another lipid known to be elevated in GD and it has been proposed as a GD biomarker (Rolfs et al. PLoS One. 2013 Nov. 20; 8(11):e79732). An average elevation of ˜36-fold in GlcSo levels was found in the CBE-treated brains as compared to the controls (FIG. 3D). The potential correlation between GlcSo levels and the life spans of mice was explored—no correlation was found either under PBS(R^2=0.068, data not shown), or in the CBE-treated brains (R^2=0.0013, FIG. 3D). Similarly to the other lipids, there was no correlation between the change in GlcSo levels and mice life spans (R^2=0.0775, data not shown).
In addition, GalCer and GalSo levels were analyzed in the brains of the treated mice (FIGS. 3E-3F).

[3] = test system: motor coordination of CBE-treated mice; experiment: Locomotor testing by the hanging wire test; details: short living CBE-treated strains; weekly from P21 for 2 months
Excerpt: Locomotor testing—Locomotor coordination was weekly evaluated in the treated strains by the hanging wire test, a validated test for LSD mouse models (Alvarez et al. 2008). Briefly, the mouse was placed with forepaws at a center of a horizontal bar (3 mm diameter; 35 mm long).
To further characterize the effect of CBE treatment on the different strains, motor behavior was followed weekly using the hanging wire test, starting at postnatal day 21 for a period of 2 months. The hanging wire test evaluates coordination and locomotor function, wherein a high score means better coordination. […] Of note, strains PWD/PhJ and WSB/EiJ were excluded in the motor behavior analysis due to their wild behavior.

O[C@H]1[C@H](O)[C@@H](O)[C@@H]2O[C@@H]2[C@@H]1O [CBE, Conduritol-β-epoxide]
brain pathology (CD68-positive cells, cortical layer V) ([1]; AKR/J mice treated with CBE, sacrificed P22): overt brain pathology
brain pathology (CD68-positive cells, cortical layer V) and mortality ([1]; BTBR T+ITPR3TF/J mice treated with CBE, sacrificed P208): less sensitive to CBE both in terms of mortality and brain pathology
average elevation in GlcCer levels in the brain ([2]; CBE-treated brains compared to PBS-treated mice): 3.7 fold
average elevation in GlcSo levels in the brain ([2]; CBE-treated brains compared to controls): ~36 fold
GalCer levels in the brain ([2]; CBE-treated mice vs PBS): no elevation
GalSo levels in the brain ([2]; CBE-treated mice vs PBS): no elevation
motor behavior (hanging wire test) [3]: poor motor behaviors starting at very early time points
